Experimental data as given in US7674464B2, “Intracellular interleukin-1 receptor antagonists” (The University of Tennessee Research Foundation, priority 2004, dated 2010).
Like-named read-outs stand apart in the source and are kept apart here. One block for each substance: values may come before it.

What was measured:
collagenase (MMP-1) [1] = assay: IL-1β-induced collagenase (MMP-1) production by dermal fibroblasts, ELISA; assay type: cell-based, human
Protocol: Confluent fibroblast monolayer cultures were treated for 2 hr with IL-1ra peptides and cultured for 48 h with hrIL-1β. Collagenase protein was measured in culture supernatants by ELISA.
(§1) Furthermore, the effect of the IL-1ra peptides on the stimulation of MMP-1 and TIMP expression was examined. Briefly, fibroblasts were seeded in wells of Flacon 3008 multiwell plates (5×10^4 cells/500 μl Maintenance Medium). After 72 h culture, the medium was removed from each well and replaced with Maintenance Medium (450 μl) containing 5% FCS and 25 μl of IL-1ra peptides or hrsIL-1ra peptide being tested. Two hrs later 25 μl IL-1β (100 pg/ml) was added to appropriate wells. Plates were incubated for 48 h, at which time medium was collected from each well. Levels of TIMP and collagenase produced by fibroblasts during culture were measured by specific ELISA techniques as previously described (Postlethwaite et al., 1988).

TIMP-1 = assay: IL-1β-stimulated TIMP-1 production by fibroblasts, ELISA; assay type: cell-based, human
Protocol: TIMP-1 was measured in the same fibroblast culture supernatants as in FIG. 21.
as §1

PGE2 = assay: IL-1β-induced fibroblast PGE2 synthesis, RIA; assay type: cell-based, human
Protocol: Confluent fibroblast monolayer cultures were preincubated with IL-1ra peptides for 2 h and then with hrIL-1β for 24 h. PGE2 was quantitated by RIA.
Additionally, since IL-1β stimulates PGE2 synthesis by fibroblasts, the effect of peptides disclosed in Table 5 on the PGE2 production by fibroblasts was examined. Briefly, Maintenance Medium in multi-well plates comprising the fibroblasts that were grown to confluency for 3 days was changed to Maintenance Medium containing 2.5% FCS (450 μl/well). This was followed by addition of IL-1ra peptides or hrsIL-1ra (25 μl aliquots) to culture wells 2 hrs prior to addition of hrIL-1β (100 pg/ml). After an additional 24 h incubation, PGE2 was measured in these culture supernatants. PGE2 was extracted from fibroblast culture supernatants and measured by a previously described radioimmunoassay technique (Ballou et al., 1990; Postlethwaite et al., 1989). It was observed that IL-1ra peptide with SEQ ID NO: 15 inhibited IL-1-induced fibroblast synthesis of PGE2 (FIG. 23). Recombinant IL-1ra (100 ng/ml) inhibited IL-1-induced PGE2 production to a level of 150 pg/ml.

D10.G4.1 T cells = assay: lymphocyte mitogenesis assay: IL-1α-stimulated proliferation of D10.G4.1 T cells; assay type: cell-based, murine; settings: peptides added 1 hour before IL-1α (10 ng/ml)
Protocol: An hour prior to the addition of hrIL-1α, the IL-1ra peptides were added to cultures of murine T cell line, D10.G4.1 and ^3H thymidine incorporation was quantitated.
Since sIL-1ra blocks IL-1 stimulation of T cells, the abilities of the IL-1ra peptides of Table 5 to inhibit mitogenesis of murine D10.G4.1 cells in response to IL-1α were assessed by performing lymphocyte mitogenesis assay. Briefly, different concentrations of IL-1ra peptides were added to culture 1 hour prior to addition of IL-1α (10 ng/ml). The results are expressed as mean cpm of quadruplicate determinations corrected for background. The standard error of the mean for each sample tested was 10% or less. None of the peptides disclosed in Table 5 inhibited IL-1α stimulation of proliferation of D10.G4.1 T cells (FIG. 20). Further, the uptake of ^125I IL-1ra peptide with SEQ ID NO: 13 by dermal fibroblasts was investigated. Briefly, the SEQ ID NO: 13 peptide (25 μg in 125 μl 0.125 sodium borate buffer pH 8.5) was labeled with ^125I-Bolton Hunter Reagent (New England Nuclear, Boston, Mass.) according to manufacturer's instructions. The labeled IL-1ra was separated from the free ^125I by passage over a Bio-Gel P-2 (BioRad, Richmond, Calif.) 1 ml column equilibrated and eluted with phosphate buffered saline containing 0.1% gelatin. […]

ICAM-1 = assay: IL-1β-induced ICAM-1 expression on human dermal fibroblasts; assay type: cell-based
Protocol: Confluent fibroblast monolayers were cultured for […] with IL-1ra peptides and then for 24 h with IL-1β. ICAM expression on fibroblast monolayers was then quantitated.
Further, since IL-1 upregulates ICAM-1 expression on a variety of cells including fibroblasts, the ability of the peptides disclosed in Table 5 to inhibit IL-1β induced ICAM-1 expression on human dermal fibroblasts was examined. Briefly, fibroblasts were seeded in wells of flat bottom 96 well tissue culture plates (NUNC, Roskilde, Denmark) (1×10^4 cells […] Maintenance Medium). After 72 h, the culture medium was removed from each well and replaced with 450 μl Maintenance Medium and 25 μl of IL-1ra peptides or hrsIL-1ra (100 ng/ml). After incubation at 37° C. for 2 h in 5% CO2 humidified atmosphere, 25 μl hrIL-1β (100 pg/mL final concentration) was added to wells containing IL-1ra peptides or hrsIL-1ra. Wells with 50 μl PBS served as a negative control. PBS 25 μl+[…] IL-1β (100 pg/ml final concentration) was a positive control. Plates were incubated an additional 24 h, after which medium was removed from each well and the cells were fixed with 100 μl of 3.8% formaldehyde in PBS for 5-7 minutes at room temperature. The cells were rinsed twice with culture medium, and 100 μl of monoclonal mouse anti-ICAM-1 antibody (AMAC, Inc., Westbrook, Me.; diluted 0.2 mg original stock diluted 1:800 in culture medium) was applied to designated wells. The plate was then incubated at 4° C. overnight.
After washing the plate thrice with 300 μl of 0.1% BSA-PBS, 200 μl of secondary antibody, goat anti-mouse IgG antibody-conjugated to horseradish peroxidase (Pierce, Rockford, Ill.) diluted 1:4000 in 1% BSA-PBS, was added to each well and the plate was incubated at room temperature for 2 h. After a final wash with 0.1% BSA-PBS, 100 μl of peroxidase substrate solution (Pierce) containing 2,2′-azino-di[3-ethylbenzthiazoline sulfonate] (Kirkegaard & Perry Laboratories, Inc., Gaithersburg, Md.) was added to each well. This was followed 30-40 minutes later by reading of the optical density (OD) at 405 nm by a Microplate Autoreader (Bio-Tek Instruments, Inc., Winooski, Vt.). The color solution was discarded and the plate was then washed twice with PBS. Finally, the cells were digested with 30 μl of 0.6 M NaOH overnight, and the amount of protein in each well was determined using BCA assay reagents (Pierce). ICAM-1 expression was presented as OD/mg protein. […] The hrsIL-1ra (100 ng/mL) inhibited IL-1β-induced ICAM-1 expression to 6 O.D. units/mg of cellular protein.

type I IL-1R [2] = biological target: T1, type I IL-1R (Mus musculus, UniProt P13504); assay: [125I] IL-1beta competitive binding to type I IL-1 receptors on EL4 6.1 cells; design: IL-1beta from type I IL-1Rs on the EL46.1 cells; endogenous in cells; host or cells: EL4 6.1 (murine T cell line); species or system murine
T1 sequence (P13504 20-576): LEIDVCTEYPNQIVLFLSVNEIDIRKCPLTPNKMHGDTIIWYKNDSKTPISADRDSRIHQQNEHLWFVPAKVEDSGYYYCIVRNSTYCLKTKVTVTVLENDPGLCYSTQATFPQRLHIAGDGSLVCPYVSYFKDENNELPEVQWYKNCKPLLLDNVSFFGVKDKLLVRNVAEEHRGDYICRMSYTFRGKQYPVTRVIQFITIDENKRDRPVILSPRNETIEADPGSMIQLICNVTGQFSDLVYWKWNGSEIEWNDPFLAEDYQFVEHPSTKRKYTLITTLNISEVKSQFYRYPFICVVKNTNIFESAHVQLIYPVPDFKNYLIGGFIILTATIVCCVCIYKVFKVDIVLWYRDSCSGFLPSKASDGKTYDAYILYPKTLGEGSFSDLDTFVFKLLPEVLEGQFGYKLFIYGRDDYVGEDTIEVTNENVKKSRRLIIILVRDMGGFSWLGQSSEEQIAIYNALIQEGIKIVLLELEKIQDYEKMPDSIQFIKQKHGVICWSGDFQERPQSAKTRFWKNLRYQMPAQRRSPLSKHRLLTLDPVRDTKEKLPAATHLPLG
Protocol: IL-1 beta for binding to type I IL-1 receptors on murine cells. EL46.1 cells were incubated at 4° C. in presence of the sodium azide for 2 hr with and without each of the IL-1ra peptides or with soluble human recombinant interleukin 1ra (shrIL-1ra) as a control. Cells were then incubated with [^125I]hrIL-1, transferred to microfuge tubes containing phthalolate oil, centrifuged and free and bound radioactivity determined. Non-specific binding was determined in the presence of 100× excess concentration of cold hrIL-1 beta.
None of the peptides were able to displace [^125I] IL-1beta from type I IL-1Rs on the EL46.1 cells (FIG. 19). Additionally a competitive binding assay was performed in which the IL-1ra peptides were added to the EL4 cells at the same time [^125I] was added. No displacement of [^125I] IL-1 beta was observed from its receptors in the presence of these IL-1ra peptides.

collagenase (MMP-1) [3] = assay: IL-1β-induced collagenase (MMP-1) production by dermal fibroblasts, ELISA; assay type: cell-based, human; settings: same wells as collagenase assay
type I IL-1R [4] = biological target: T1, type I IL-1R; design: host or cells: EL4.IL-2 murine thymoma cells; settings: murine thymoma cell line EL4.IL-2; read-out: affinity (Kp) for type I IL-1R; cited from earlier work
[5] = listed as 60-90 (SEQ ID NO: 15)

inhibition of IL-1-induced collagenase production by fibroblasts (collagenase (MMP-1) [1]): failed to block
Substance: IHGGKMCLSCVKSGDETRLQLEAVNITDLSE (IL-1ra peptides representing the mature form of human sIL-1ra) [IL-1ra 60-90, synthetic peptide, residues 60-90 of IL-1ra]
inhibition of IL-1β-induced TIMP-1 production by fibroblasts (TIMP-1): failed to block | inhibition of IL-1-induced fibroblast PGE2 synthesis (PGE2; [5]): blocked | inhibition of IL-1-induced fibroblast PGE2 synthesis (PGE2; listed as IL-1ra peptide 60-90): inhibited | inhibition of IL-1-induced fibroblast PGE2 synthesis (PGE2; listed as SEQ ID NO: 15): inhibited | inhibition of IL-1-stimulated proliferation of D10.G4.1 T cells (D10.G4.1 T cells): did not block | inhibition of IL-1β-induced ICAM-1 expression on fibroblasts (ICAM-1; [5]): blocked | inhibition of IL-1β-induced ICAM-1 expression on fibroblasts (ICAM-1; listed as IL-1ra peptide 60-90): inhibited | inhibition of IL-1β-induced ICAM-1 expression on fibroblasts (ICAM-1; listed as SEQ ID NO: 15): inhibited the ICAM-1 expression on cultured fibroblasts in a dose dependent manner

concentrations at which IL-1 induced collagenase synthesis was inhibited (collagenase (MMP-1) [1]; dermal fibroblasts, FIG. 21): ≥ 10^−10 M | inhibition of IL-1-induced collagenase production by fibroblasts (collagenase (MMP-1) [1]; listed as 1-35 (SEQ ID NO: 13)): blocked | inhibition of IL-1-induced collagenase production by fibroblasts (collagenase (MMP-1) [1]; listed as IL-1ra peptide 1-35): inhibited
Substance: RPSGRKSSKMQAFRIWDVNQKTFYLRNNQLVAGYL (IL-1ra peptides representing the mature form of human sIL-1ra) [IL-1ra 1-35, synthetic peptide, residues 1-35 of mature human sIL-1ra]
competition with / displacement of [125I] IL-1beta from type I IL-1Rs (type I IL-1R [2]; EL4 6.1 cells): did not competitively inhibit the binding | fibroblast growth (counting trypsinized cells in hemocytometer) (collagenase (MMP-1) [3]): unchanged

displacement of [125I] IL-1 beta from EL4 cells (type I IL-1R [2]; 100× excess): greater than 90%
Substance: hrsIL-1ra: soluble human recombinant interleukin 1ra, used as control [reference compound]
Kd (type I IL-1R [4]): 150 pM | level to which IL-1-induced PGE2 production was inhibited (PGE2; 100 ng/ml): 150 pg/mL | level to which IL-1β-induced ICAM-1 expression was inhibited (ICAM-1; 100 ng/mL): 6 O.D. units/mg of cellular protein
